{"source": "PubChem BioAssay (NCI)", "key": {"P388/ADR leukemia": {"tested_on": "P388/ADR leukemia", "assay": "NCI tumour cell line growth inhibition, 48 h"}, "SN12K1 renal": {"tested_on": "SN12K1 renal", "assay": "NCI tumour cell line growth inhibition, 48 h"}}, "note": "Where “and” joins values, the source holds several entries; their conditions need not be identical. Equal entries are not always repeated.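 In this assay, cells in 96-well plates receive the compound at five concentrations for 48 hours. Endpoints are linearly interpolated between the surrounding concentrations. GI50 marks 50% less growth. TGI: concentration producing complete growth inhibition.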"}
{"smiles": "O=C(Nc1ccccc1)c1c(O)[nH]c(=S)[nH]c1=O", "values": [{"measurement": "GI50", "setting": "P388/ADR leukemia", "value": 46.9, "unit": "µM"}, {"measurement": "TGI", "setting": "P388/ADR leukemia", "value": "80.6 µM and 116 µM"}, {"measurement": "GI50", "setting": "SN12K1 renal", "value": 25.2, "unit": "µM"}, {"measurement": "TGI", "setting": "SN12K1 renal", "value": "51.8 µM and 75.1 µM"}]}
